Measured values published in patent publication US20030095953A1, “METHODS OF REVERSING DRUG RESISTANCE IN CANCER CELLS” (priority 1999, published 2003).
Where a name gives a salt, the structure may show the parent alone. Read-outs that look alike come from different tables or passages of the source.

Experiments:
Assay type in all cases: cell-based, human
[1] = tested on: MCF-7-AdrR cells; test: Analysis of ceramide in MCF-7-AdrR cells; conditions: 48 hr
Experimental: (§1) Analysis of Ceramide. Analysis was performed as previously described (Liu, Y. Y.et al., (1999) J. Biol. Chem. 274, 1140-1146, Lavie, Y., et al., (1996) J. Biol. Chem. 271, 19530-19536). Cells were seeded in 6-well plates (60,000 cells/well) in 10% FBS RPMI-1640 medium. After 24 hr, cells were shifted to 5% FBS medium with or without adriamycin, and grown for the indicated times. Cellular lipids were radiolabeled by adding [3H]palmitic acid (2.5 μCi/ml culture medium) for 24 hr. After removal of medium, cells were rinsed twice with PBS (pH 7.4), and total lipids were extracted as described (Lavie, Y. et al.,. (1996) J. Biol. Chem. 271, 19530-19536). The resulting organic lower phase was withdrawn and evaporated under a stream of nitrogen. Lipids were resuspended in 100 μl of chloroform/methanol (1:1, v/v), and aliquots were applied to TLC plates. Ceramide was resolved using a solvent system containing chloroform/acetic acid (90:10, v/v). Commercial lipid standards were co-chromatographed. After development, lipids were visualized by iodine vapor staining, and the ceramide area was scraped into 0.5 ml water. EcoLume counting fluid (4.5 ml) was added, the samples were mixed, and radioactivity was quantitated by liquid scintillation spectrometry.

[2] = tested on: MCF-7-AdrR cells; test: Cytotoxicity assay in MCF-7-AdrR cells; conditions: 72 hr exposure, read-out: EC50 (amount of drug provoking 50% cell death)
Experimental: (§2) Cytotoxicity Assay. Assays were performed as previously described (Liu, Y. Y., et al., (1999) J. Biol. Chem. 274, 1140-1146; Lavie, Y. et al., (1997) J. Biol. Chem. 272, 1682-1687). Briefly, cells were seeded in 96-well plates (2,000 cells/well), in 0.1 ml RPMI-1640 medium containing 10% FBS, and cultured at 37° C. for 24 hr before addition of drug. Drugs were added in FBS-free medium (0.1 ml), and cells were cultured at 37° C. for the indicated periods. Drug cytotoxicity was determined using the Promega 96 Aqueous cell proliferation assay kit (Promega, Madison, Wis.). Absorbance at 490 nm was recorded using a Microplate Fluorescent Reader, model FL600 (Bio-Tek, Winooski, Vt.).

[3] = tested on: MCF-7-AdrR/asGCS cells; test: Cytotoxicity assay in MCF-7-AdrR/asGCS cells; conditions: 72 hr exposure; for EC50: Homo sapiens, MCF-7-AdrR/asGCS cells, read-out: EC50 (amount of drug provoking 50% cell death)
Experimental: as §2

[4] = tested on: MCF-7-AdrR/asGCS cells; test: Analysis of ceramide in MCF-7-AdrR/asGCS cells
Experimental: as §1

[5] = tested on: caspase-3; test: Caspase-3 assay (DEVD-AFC cleavage) in MCF-7-AdrR cells; conditions: 10 μM, 48 hr
Experimental: (§3) Caspase-3 Assay. Caspase-3 activity was assayed by DEVD-AFC cleavage, using the ApoAlert Caspase-3 assay kit (Clontech, Palo Alto, Calif.). The assay was performed as previously described (Liu, Y. Y., et al., (1999) Exp. Cell Res. 252, 464-470). Cells were seeded in 100-mm dishes (500,000 cells/dish) in 10% FBS RPMI-1640 medium. After 24 hr, cells were shifted to 5% FBS RPMI-1640 medium without or with adriamycin, and grown for 24 and 48 hr. Following harvest, cells ([…]) were lysed on ice for 10 min with 50 μl of lysis buffer, and cell debris was removed by centrifugation at 4° C., 10,000×g, for 5 min. The soluble fraction was incubated with 50 μM conjugated substrate DEVD-AFC in a 100 μl reaction volume at 37° C., for 60 min. The free AFC fluoresce was measured at λexcitation 400 nm and λemission 505 nm using a FL600 Microplate Fluorescence Reader. The caspase-3 inhibitor, acetyl-Asp-Glu-Val-Asp-aldehyde was used to exclude nonspecific background in the enzymatic reaction.

[6] = tested on: caspase-3; test: Caspase-3 assay (DEVD-AFC cleavage) in MCF-7-AdrR/asGCS cells; conditions: for increase of caspase-3 activity over control: MCF-7-AdrR/asGCS cells, 10 μM; for caspase-3 activity in GCS antisense-transfected cells vs parental cells: adriamycin 10 μM
Experimental: as §3

| Structure (SMILES) | increase of ceramide levels above control ([1]; adriamycin 2.5 μM) [%] | ceramide level response ([1]; adriamycin 0.5-2.5 μM) | EC50 ([2]; hydrochloride) [µM] | EC50 ([2]; Homo sapiens, 72 h) [µM] | decrease of EC50 in MCF-7-AdrR/asGCS vs MCF-7-AdrR cells [3] [fold] | EC50 [3] [µM] | enhancement of ceramide levels ([4]; adriamycin 0.5 μM, 48 hr) [%] | enhancement of ceramide levels ([4]; adriamycin 1.0 μM, 48 hr) [%] | increase of ceramide levels ([4]; adriamycin 2.5 μM, 24 hr) [%] | increase of ceramide levels ([4]; adriamycin 2.5 μM, 48 hr) [%] | enhancement of ceramide levels ([4]; adriamycin 2.5 μM, 48 hr (dose series)) [%] | increase of caspase-3 activity [5] [%] | increase of caspase-3 activity over control ([6]; 24 hr) [%] | increase of caspase-3 activity over control ([6]; 48 hr) [%] | caspase-3 activity in GCS antisense-transfected cells vs parental cells ([6]; 24 hr) [fold] | caspase-3 activity in GCS antisense-transfected cells vs parental cells ([6]; 48 hr) [fold] |
| --- | --- | --- | --- | --- | --- | --- | --- | --- | --- | --- | --- | --- | --- | --- | --- | --- |
| COc1cccc2c1C(=O)c1c(O)c3c(c(O)c1C2=O)C[C@@](O)(C(=O)CO)C[C@@H]3O[C@H]1C[C@H](N)[C@H](O)[C@H](C)O1 [adriamycin, doxorubicin hydrochloride] | 16 | minimal response | 10 | 12.4 ± 0.7 | 28 | 0.44 ± 0.01 | 181 | 188 | 200 | 250 | 246 | 160 | 290 | 980 | 3 | 6 |
| CCCCCCCCCCCCC/C=C/[C@@H](O)[C@H](CO)NC(=O)CCCCC [C6-ceramide, N-hexanoylsphingosine] |  |  |  | 9.6 ± 0.5 | 2.4 | 4 ± 0.03 |  |  |  |  |  |  |  |  |  |  |
